Experiment: method code SF-AS, from DOI: 10.1002/hlca.19830660215
Settings: for logD: pH 11.0

Row | Structure (SMILES) | logP | logD
1 | CCN(CC)CCNC(=O)c1ccccc1OC | 1.98 | 
2 | CN(C)CCNC(=O)c1ccccc1 | 1.1 | 
3 | COc1ccccc1C(=O)NCCN | 0 | 
4 | COc1ccccc1C(=O)N1CCN(C)CC1 | 0.29 | 
5 | CCN(CC)CCNC(=O)c1ccccc1 |  | 1.84
6 | CN(C)CCCNC(=O)c1ccccc1 |  | 1.27
7 | CCN(CC)CCCNC(=O)c1ccccc1 |  | 1.56
8 | COc1ccccc1C(=O)NCCN(C)C | 1.14 | 
9 | NCCCNC(=O)c1ccccc1 |  | 0.3
10 | COc1ccccc1C(=O)NCCCCN |  | 0.58
11 | COc1ccccc1C(=O)NCCCN(C)C | 1.27 | 
12 | NCCNC(=O)c1ccccc1 |  | 0.06
13 | CCN(CC)CCCNC(=O)c1ccccc1OC | 1.76 | 
14 | NCCCCNC(=O)c1ccccc1 |  | 0.58

From the SangsterLogP compilation
